Assay results from patent US5075322A, “Selenophen derivatives, a preparation process of the same and therapeutical compositions containing them” (Societe de Conseils de Recherches et d'Applications …, priority 1989, dated 1991).

Assays:
[1] = tested on: ovalbumine-induced bronchospasm; assay: ovalbumine-induced bronchospasm in actively sensitized guinea pigs; assay type: in vivo; details: Table III, 0.1 mg/kg PO
Description: (§1) The different symbols NS, *, ** and *** which may be found in the different tables, mean that the result is respectively not significative, significative, very significative and highly significative.

[2] = tested on: ovalbumine-induced bronchospasm; assay: ovalbumine-induced bronchospasm in anaesthetized passively sensitized guinea-pigs; assay type: in vivo
Experimental: In the ovalbumine-induced bronchospasm in anaesthetized passively sensitized guinea-pigs, compound XI and ketotifen, administered 1 hour before the injection of ovalbumine, inhibit the bronchoconstriction (>90%) in a dose-dependant-manner respectively with following ED50 (P.O.)
For both products, the activity disappears at 24 hours.
The kinetic results, after administration by oral route of the said compounds at 0.1 mg/kg and 0.05 mg/kg (P.O.), for 1 to several hours before ovalbumine injection (1 mg/kg), are reported respectively in tables 1 and 2.
as §1

[3] = tested on: B.S.A.-induced immune lethality in mice; assay: B.S.A.-induced immune lethality (anaphylactic shock) in actively sensitized mice; assay type: in vivo
Description: as §1
At the same dose, ketotifen has no effect.

[4] = tested on: histamine induced bronchospasm; assay: histamine-induced bronchospasm in artificially ventilated anaesthetized guinea pigs; assay type: in vivo; details: Cavia porcellus, po; administered 1 hour before histamine (15 mg IV), P.O.; read-out: ED 50 (P.O.)
[5] = tested on: ovalbumine-induced bronchospasm; assay: ovalbumine-induced bronchoconstriction in passively sensitized rats; assay type: in vivo; details: for Percentage of bronchoconstriction / Percentage of effect: Table IV
Description: as §1

[6] = tested on: histamine induced bronchospasm; assay: histamine-induced bronchospasm in artificially ventilated anaesthetized guinea pigs; assay type: in vivo; details: for % of bronchoconstriction / % of effect: Table V, 0.1 mg/kg PO
Experimental: as §1
The kinetic results of the administration of compound XI and ketotifen by oral route at 0.1 mg/kg (P.O.), 1 to 27 h histamine injection (15 mg IV), are reported in table 5.

rat washed platelets = assay: PAF-induced aggregation of rat washed platelets in vitro; assay type: cell-based; details: Platelet, PAF 5.10^-10 M
Description: In vitro: effects on aggregation (IC50) induced by PAF (5·10^-10 M), rat washed platelets are as follow: IC50 Compound XI 2.10^-6 M. IC50 Ketotifen 10^-5 M.

PAF induced bronchospasm = assay: PAF-induced bronchospasm in artificially-ventilated anaesthetized guinea pigs; assay type: in vivo; details: for Percentage of bronchoconstriction / Percentage of effect: Table VII, PAF 60 mg/kg IV
Description: as §1

[7] = Table I, 0.1 mg/kg PO, pretreatment 1 h
[8] = Table I, 0.1 mg/kg PO, pretreatment 3 h
[9] = Table I, 0.1 mg/kg PO, pretreatment 6 h
[10] = Table I, 0.1 mg/kg PO, pretreatment 9 h
[11] = Table I, 0.1 mg/kg PO, pretreatment 15 h
[12] = Table I, 0.1 mg/kg PO, pretreatment 18 h
[13] = Table I, 0.1 mg/kg PO, pretreatment 21 h
[14] = Table I, 0.1 mg/kg PO, pretreatment 24 h
[15] = Table II, 0.05 mg/kg PO, pretreatment 1 h
[16] = Table II, 0.05 mg/kg PO, pretreatment 3 h
[17] = Table II, 0.05 mg/kg PO, pretreatment 6 h
[18] = Table II, 0.05 mg/kg PO, pretreatment 9 h
[19] = Table II, 0.05 mg/kg PO, pretreatment 15 h
[20] = Table II, 0.05 mg/kg PO, pretreatment 18 h
[21] = Table II, 0.05 mg/kg PO, pretreatment 21 h

CN1CCC(=C2c3ccccc3CC(=O)c3sccc32)CC1 [ketotifen]
% of bronchoconstriction ([1]; pretreatment 1 h): 3.6 ± 1.2%
% of effect ([1]; pretreatment 1 h): -95.8 ± 1.4%
% of bronchoconstriction ([1]; pretreatment 3 h): 3.3 ± 0.5%
% of effect ([1]; pretreatment 3 h): -95.6 ± 0.7%
% of bronchoconstriction ([1]; pretreatment 6 h): 42.1 ± 19.3%
% of effect ([1]; pretreatment 6 h): -43.9 ± 25.8%
% of bronchoconstriction ([1]; pretreatment 9 h): 83.2 ± 16.1%
% of effect ([1]; pretreatment 9 h): -8.8 ± 17.6%
% of bronchoconstriction ([1]; pretreatment 15 h): 77.5 ± 14.8%
% of effect ([1]; pretreatment 15 h): -9.0 ± 17.4%
% of bronchoconstriction ([1]; pretreatment 18 h): 64.5 ± 19.5%
% of effect ([1]; pretreatment 18 h): +17.9 ± 35.7%
% of bronchoconstriction ([1]; pretreatment 21 h): 73.6 ± 15.5%
% of effect ([1]; pretreatment 21 h): +34.4 ± 28.5%
time at which the activity disappears ([2]; 0.1 mg/kg and 0.05 mg/kg P.O.): 24 h
ED50 ([2]; Cavia porcellus, po, administered 1 hour before ovalbumine, P.O., passively sensitized guinea-pigs, read-out: ED50 (P.O.)): 0.0941 µmol/kg
% of bronchoconstriction [2, 7]: 8.3 ± 3.2%
% of effect [2, 7]: -90.2 ± 3.8%
% of bronchoconstriction [2, 8]: 7.3 ± 3.0%
% of effect [2, 8]: -88.3 ± 4.8%
% of bronchoconstriction [2, 9]: 31.9 ± 17.9%
% of effect [2, 9]: -48.8 ± 28.8%
% of bronchoconstriction [2, 10]: 66.9 ± 19.7%
% of effect [2, 10]: -25.1 ± 22.0%
% of bronchoconstriction [2, 11]: 77.5 ± 10.6%
% of effect [2, 11]: -5.9 ± 13.3%
% of bronchoconstriction [2, 12]: 54.0 ± 18.6%
% of effect [2, 12]: -44.3 ± 19.2%
% of bronchoconstriction [2, 13]: 88.3 ± 7.6%
% of effect [2, 13]: -8.8 ± 7.9%
% of bronchoconstriction [2, 14]: 67.3 ± 15.0%
% of effect [2, 14]: +8.3 ± 24.0%
% of bronchoconstriction [2, 15]: 44.9 ± 15.9%
% of effect [2, 15]: -49.2%
% of bronchoconstriction [2, 16]: 5.7 ± 1.7%
% of effect [2, 16]: -93.6%
% of bronchoconstriction [2, 17]: 82.9 ± 14.0%
% of effect [2, 17]: -14.3%
% of bronchoconstriction [2, 18]: 80.3 ± 19.7%
% of effect [2, 18]: -17.1%
% of bronchoconstriction [2, 19]: 64.3 ± 18.3%
% of effect [2, 19]: -2.4%
% of bronchoconstriction [2, 20]: 100 ± 0%
% of effect [2, 20]: +2.0%
% of bronchoconstriction [2, 21]: 94.4 ± 3.2%
% of effect [2, 21]: -3.2%
inhibition of bronchoconstriction ([2]; administered 1 hour before ovalbumine, P.O., dose-dependent): > 90%
Mortality at 24 hours, % of mortality ([3]; 0.250 mg/kg PO): 50%
Mortality at 24 hours, % of variation ([3]; 0.250 mg/kg PO): -18.7%
Mortality at 24 hours, number of killed ([3]; 0.250 mg/kg PO): 5/10
protective effect (in words) ([3]; 0.275 mg/kg P.O.): has no effect
Mortality at 24 hours, % of mortality ([3]; 0.500 mg/kg PO): 40%
Mortality at 24 hours, % of variation ([3]; 0.500 mg/kg PO): -35%
Mortality at 24 hours, number of killed ([3]; 0.500 mg/kg PO): 4/10
ED50 [4]: 0.0635 µmol/kg
Percentage of bronchoconstriction ([5]; 0.1 mg/kg PO): 24.7 ± 5.1%
Percentage of effect ([5]; 0.1 mg/kg PO): -31.0%
Percentage of bronchoconstriction ([5]; 1 mg/kg PO): 46.3 ± 11.0%
Percentage of effect ([5]; 1 mg/kg PO): +29.3%
inhibition of bronchoconstriction (in words) ([5]; passively sensitized rats): has no effect
% of bronchoconstriction ([6]; 1 h): 2.1 ± 0.8%
% of effect ([6]; 1 h): -97.4 ± 1.0%
% of bronchoconstriction ([6]; 3 h): 0%
% of effect ([6]; 3 h): -100 ± 0%
% of bronchoconstriction ([6]; 6 h): 18.2 ± 13.3%
% of effect ([6]; 6 h): -77.8 ± 16.2%
% of bronchoconstriction ([6]; 9 h): 22.1 ± 14.1%
% of effect ([6]; 9 h): -71.5 ± 14.1%
% of bronchoconstriction ([6]; 15 h): 51.4 ± 16.7%
% of effect ([6]; 15 h): -26.9 ± 16.7%
% of bronchoconstriction ([6]; 18 h): 54.6 ± 13.3%
% of effect ([6]; 18 h): -39.8 ± 14.8%
% of bronchoconstriction ([6]; 21 h): 46.6 ± 14.9%
% of effect ([6]; 21 h): -44.9 ± 17.6%
% of bronchoconstriction ([6]; 24 h): 63.7 ± 15.1%
% of effect ([6]; 24 h): -3.0 ± 23.1%
% of bronchoconstriction ([6]; 27 h): 83.4 ± 5.9%
inhibition of bronchoconstriction (in words) ([6]; administered 1 hour before histamine (15 mg IV)): inhibit significantly the bronchoconstriction in a dose-dependant-manner
duration of maximum effect ([6]; during only the first hours, 0.1 mg/kg P.O.): 3 h
IC50 (rat washed platelets): 10 µM
inhibition of PAF induced bronchospasm (in words) (PAF induced bronchospasm; 1 hour before PAF, 0.1 mg/kg): less active
Percentage of bronchoconstriction (PAF induced bronchospasm; 0.1 mg/kg PO): 63.5 ± 9.6%
Percentage of effect (PAF induced bronchospasm; 0.1 mg/kg PO): -18.9%
Percentage of bronchoconstriction (PAF induced bronchospasm; 1 mg/kg PO): 26.2 ± 14.8%
Percentage of effect (PAF induced bronchospasm; 1 mg/kg PO): -66.5%
